Patent publication US20220275037A1, “ß-AMYLOID CYCLIC RIBONUCLEIC ACID, POLYPEPTIDE, AND APPLICATION THEREOF” (priority 2019, published 2022)

Key:
APP mRNA = test: qRT-PCR of APP mRNA under ASO treatment; assay type: cell-based, human
From the text: (§1) FIG. 7A. Schematic diagram of the designing of anti-circAβ-a-ASO. FIG. 7B. β-amyloid circular ribonucleic acid qRT-PCR results under ASO treatment; BE-Aβ represents the plasmid overexpressing circAβ-a using pCircRNA-BE vector; DMo-Aβ represents the overexpression using pCircRNA-DMo vector circAβ-a plasmid; Scr. ASO means negative control experiment ASO. FIG. 7C. qRT-PCR results of APP mRNA under ASO treatment.
(§2) In this example, the specific antisense oligonucleotide (ASO) against β-amyloid cyclic ribonucleic acid (circAβ) is used to inhibit and degrade circAβ to prevent and treat Alzheimer's disease. As shown in FIGS. 7A-7C, the level of the circular RNA in the cell is reduced by antisense oligonucleotides (anti-circAβ-a-ASO) against β-amyloid cyclic ribonucleic acid-a (circAβ-a). The APP mRNA was not affected (FIG. 7C). As shown in the figure, antisense oligonucleotides containing SEQ ID No. 41-57 anti-amyloid cyclic ribonucleic acid (circAβ). Antisense oligonucleotides recognize β-amyloid circular ribonucleic acid through base complementary pairing. Antisense oligonucleotides that bind target RNA can degrade target RNA by activating RNase H enzyme activity (FIGS. 7A-7C). Antisense oligonucleotides can also regulate (such as inhibit) protein translation by binding to target RNA.

circAβ-a = test: qRT-PCR of circAβ-a under ASO treatment; assay type: cell-based, human; conditions: cells overexpressing circAβ-a, vs Scr. ASO
From the text: as §1, §2

## AAGCAGCTCATCTCCACCACAC (listed as DNA, chemistry not given here) [anti-circAβ-a-ASO, antisense oligonucleotide against circAβ-a]
APP mRNA
  APP mRNA level: not affected
circAβ-a
  level of circAβ-a in cells: reduced
